The values below come from paper PMC11603058 (Scientific Reports, 2024).

Molecules are shown by their SMILES. Peptide text beside a SMILES is read from it. * marks the point of attachment. Cbz = O=C(OCc1ccccc1)*; CH2F = FC*

For series [1], the system named is MIA PaCa-2 cells. The series is described as follows: Viability of AJO14-treated cells in presence of cell death inhibitors. Particulars: MIA PaCa-2, 24 h; Z-VAD-FMK (20 µM), Nec-1 (40 µM), or Olaparib (25 μM). In kind it is cell-based, human.
In series [2] the test system is MIA PaCa-2 cells. As to the kind of experiment: Oxygen consumption rate, Seahorse XF. In kind it is cell-based, human. Particulars: MIA PaCa-2, 24 h, AJO14 (10 μM) with increasing concentrations of Olaparib.
The target in another series is hERG channel (Homo sapiens, UniProt Q12809). As to the kind of experiment: Predictor hERG Fluorescence Polarization assay. In kind it is binding. Particulars: read-out: hERG channel inhibition (IC50), 0.1-80 μM.
hERG channel, sequence (Q12809 whole entry): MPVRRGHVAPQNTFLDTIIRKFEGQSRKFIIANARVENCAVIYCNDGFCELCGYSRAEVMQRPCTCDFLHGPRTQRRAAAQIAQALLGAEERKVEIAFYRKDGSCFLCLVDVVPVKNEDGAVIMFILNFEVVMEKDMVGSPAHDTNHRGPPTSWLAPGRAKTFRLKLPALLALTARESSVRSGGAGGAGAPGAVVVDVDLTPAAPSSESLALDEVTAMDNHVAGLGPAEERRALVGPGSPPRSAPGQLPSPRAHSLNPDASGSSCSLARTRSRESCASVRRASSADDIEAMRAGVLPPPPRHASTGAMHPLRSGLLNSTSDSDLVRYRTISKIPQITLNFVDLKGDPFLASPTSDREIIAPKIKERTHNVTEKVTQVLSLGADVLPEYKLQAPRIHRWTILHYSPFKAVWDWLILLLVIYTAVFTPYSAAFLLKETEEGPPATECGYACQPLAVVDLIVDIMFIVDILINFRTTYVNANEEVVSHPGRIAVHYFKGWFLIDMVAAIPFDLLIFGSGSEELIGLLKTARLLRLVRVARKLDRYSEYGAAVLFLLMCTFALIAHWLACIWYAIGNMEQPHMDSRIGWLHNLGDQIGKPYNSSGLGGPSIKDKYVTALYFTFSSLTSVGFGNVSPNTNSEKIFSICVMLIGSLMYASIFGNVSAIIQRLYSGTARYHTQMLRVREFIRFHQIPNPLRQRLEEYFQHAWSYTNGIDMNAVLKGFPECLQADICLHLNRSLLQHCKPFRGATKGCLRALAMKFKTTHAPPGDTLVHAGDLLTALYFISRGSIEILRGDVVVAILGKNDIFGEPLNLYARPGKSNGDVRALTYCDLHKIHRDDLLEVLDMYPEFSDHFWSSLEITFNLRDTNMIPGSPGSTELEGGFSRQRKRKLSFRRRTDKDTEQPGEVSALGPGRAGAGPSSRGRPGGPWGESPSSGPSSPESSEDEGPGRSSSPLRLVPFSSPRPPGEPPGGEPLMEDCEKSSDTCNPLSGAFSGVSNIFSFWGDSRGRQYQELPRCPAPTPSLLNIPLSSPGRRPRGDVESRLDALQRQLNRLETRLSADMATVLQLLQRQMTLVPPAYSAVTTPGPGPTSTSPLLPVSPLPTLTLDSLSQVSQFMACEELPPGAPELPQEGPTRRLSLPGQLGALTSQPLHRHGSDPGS

For orientation: IC50 means the concentration that inhibits the measured activity by half.

As to `CN1C(=O)C(Cc2c[nH]c3ccccc23)NC1=S` (centres unmarked) [Necrostatin], the “effect of pretreatment on cell viability of cells treated with AJO14” value (from here on “effect of pretreatment”) with MIA PaCa-2 cells [1] is recorded as “partially improved the cell viability”.
On to `O=C(c1cc(Cc2n[nH]c(=O)c3ccccc23)ccc1F)N1CCN(C(=O)C2CC2)CC1` [Olaparib], for which the “effect of pretreatment” value with MIA PaCa-2 cells [1] is “partially improved the cell viability”. For the same compound, the “effect on mitochondrial metabolism failure (OCR) caused by AJO14” value in the series on MIA PaCa-2 cells [2] is “could reverse the strong mitochondrial metabolism failure caused by AJO14”.
Regarding `CN(C)CCN1CCN(CCCN2c3ccccc3Sc3ccc(C(F)(F)F)cc32)CC1` [ZZW-115], at hERG channel, the IC50 is 2000 nM.
Consider `COC(=O)C[C@H](NC(=O)[C@H](C)NC(=O)[C@@H](NC(=O)OCc1ccccc1)C(C)C)C(=O)CF` [Z-VAD-FMK] (Cbz-Val-Ala-Asp(OMe)-CH2F), for which the “effect of pretreatment” value in the series with MIA PaCa-2 cells [1] is recorded as “partially improved the cell viability”.
